Reference: patent US6660255B1, “Inhibition of gene transcription by polyamide DNA-binding ligands” (California Institute of Technology, priority 1997, dated 2003)

How the values were obtained:
[1] = test system: 5′-AGTACT-3′ site adjacent to the LEF-1 binding site; experiment: DNase footprint titration on HIV-1 enhancer/promoter fragment; conditions: mismatch polyamide
Experimental: (§1) White, S., Baird, E. E. & Dervan, P. B. describes the pairing rules for recognition in the minor groove of DNA by pyrrole-imidazole polyamides. […] Labeled DNA was incubated with polyamide (45 minutes) and digested with DNase I under single-hit conditions.
(§2) Regions of polyamide protection were determined by analysis of the digestion products on a 6% denaturing polyacrylamide sequencing gel. Storage phosphorimage analysis of the data was used to obtain dissociation constants for the binding reactions (using Kodak Storage Phosphor Screens and a Molecular Dynamics SF PhosphorImager). Recombinant human TBP (rhTBP) was obtained from Promega and was used in footprinting and gel mobility shift experiments as recommended. The reaction mixtures also contained 100 ng of poly dG-poly dC per 10 μL gel shift reaction or 50 μL footprinting reaction. For gel mobility shift assays, 6% polyacrylamide gels (20:1, acrylamide to bisacrylamide) contained 44 mM Tris-borate, pH 8.3, 1 mM EDTA, […] and 0.02% (v/v) NP-40. The same buffer was used for electrophoresis of 1 mm thick gels at 15 volts/cm for 2 hours at 4° C.

[2] = test system: HIV-1 promoter (LEF-1-activated transcription); experiment: HIV-1 transcription in vitro, H9 cell extract supplemented with HeLa nuclear extract; type: biochemical; conditions: mismatch polyamide
Text: Based on the-results described above, it was expected that polyamide inhibition of LEF-1 binding would inhibit LEF-1-dependent transcription in an appropriate in vitro assay system. […] The H9 cell extract was supplemented with the HeLa cell-derived nuclear extract in order to obtain high levels of transcription. The H9 cell extract stimulates HIV-1 transcription ˜2.5 to 3-fold over the level of transcription observed with the HeLa extract alone and immunodepletion of LEF-1 protein from the H9 extract abolishes this activated transcription.
The effects of polyamides 1 and 2 on HIV-1 transcription were tested in an in vitro transcription assay with a HeLa cell nuclear extract (FIG. 21A). The effects of the polyamides on basal transcription by RNA polymerase II was monitored with a nuclear extract prepared from HeLa cells (J. D. Dignam, P. L. Martin, B. S. Shastry, R. G. Roeder, Describe eukaryotic gene transcription with purified components Meth. Enzymol. 101, 582 (1983)). […] Whole cell extracts of H9 cells in log phase growth were prepared by hypotonic lysis and contained 20 mg/ml protein, as determined by the Bradford reaction. […]
The effects of polyamides 3 and 4 on HIV-1 transcription in an in vitro system consisting of a cell-free extract prepared from cultured human lymphoid H9 cells supplemented with HeLa cell extract were determined. […]

[3] = test system: 5′-WGCWGCW-3′ sequences adjacent to the HIV-1 TATA element; experiment: DNase I footprint titration at sites flanking the HIV-1 TATA element; type: binding
Experimental: The recognition sites for polyamide HIV-1 are of the form 5′-WGCWGCW-3″ (where W=A or T).
as §1, §2

wild-type HIV-1 promoter = experiment: HIV-1 transcription in vitro with lymphoid cell nuclear extract; type: biochemical; conditions: read-out: polyamide concentration for fifty percent inhibition of HIV-1 transcription
Experimental: The recognition sites for polyamide HIV-1 are of the form 5′-WGCWGCW-3″ (where W=A or T). Since a pyrrole-pyrrole pair can recognize either an A-T base pair or a T-A base pair, polyamide HIV-1 will recognize both the 5′ and 3′ flanking sequences of the HIV-1 TATA element. […] This concentration corresponds to only a 16-fold excess of polyamide over specific binding sites in the HIV-1 plasmid DNA (3 nM).

HIV-1 strain WEAU1.6 = experiment: HIV-1 replication in human PBMC, p24 ELISA; type: cell-based; conditions: mismatch controls, alone or in combination
Experimental: PBMC were infected with the T cell-tropic HIV-1 strain WEAU1.6, or the macrophage-tropic strain SF162. […] Polyamides were added to the culture medium and the levels of HIV-1 p24 viral capsid protein in the culture media were determined on subsequent days using a standard ELISA assay.
Human PBMC were separated from whole blood collected from normal adult volunteers by density gradient centrifugation as described. […] Human PBMC were activated with 2 μg/mL PHA and 20 units/mL of IL-2 for 2-3 days prior to HIV-1 infection. […] Free virus was removed by washing the cells in medium, and polyamides added to the culture. […] Virus replication in culture was measured by HIV-1 p24 viral capsid antigen ELISA (DuPont Medical Products, Boston, Mass.).
PBMC cultures were infected with the primary HIV-1 isolate WEAU 1.6 (kindly provided by G. Shaw), and virus replication measured by release of p24 capsid antigen into the medium that was detected by antibody-capture ELISA (Dupont). Each experiment involved a separate PBMC donor.

[4] = test system: IE86 binding to the CMV MIEP; experiment: DNase I footprinting, IE86 binding to the crs element; design: species or system human cytomegalovirus; conditions: approximately 250 nM IE86
Text: These compounds together with purified recombinant IE86 protein were used in DNase I footprint experiments with a singly end-labeled restriction fragment derived from the CMV major immediate early promoter. […] A singly-end labeled restriction fragment was used in DNase I footprinting reactions. […] Lanes 1 and 18 represent a G+A sequencing ladder. […] The location of the TATA box and the start of transcription are indicated.

SMILES: CN(C)CCCNC(=O)CCNC(=O)c1cc(NC(=O)c2nc(NC(=O)CCNC(=O)c3cc(NC(=O)c4nc(NC(=O)CCCNC(=O)c5cc(NC(=O)c6nc(NC(=O)CCNC(=O)c7cc(NC(=O)c8nccn8C)cn7C)cn6C)cn5C)cn4C)cn3C)cn2C)cn1C [polyamide 4, ImPy-β-ImPy-γ-ImPy-β-ImPy-β-Dp]
- fold reduced affinity for the 5′-AGTACT-3′ sequence [1]: > 100 fold
- inhibition of HIV-1 transcription [2]: fails to inhibit
- Ka ([3]; HIV-1 TATA box region): 2e+10 M⁻¹
- fold reduced affinity relative to the match polyamide ([3]; mismatch control polyamide): 100 fold
- Kd ([3]; sites flanking the TATA element, 5′-AGCTGCA-3′ / 5′-TGCTGCA-3′, read-out: apparent/equilibrium dissociation constant (Kd)): 0.05 nM
- IC50 (wild-type HIV-1 promoter): ~50 nM
- effect on the level of virus in the medium (HIV-1 strain WEAU1.6): had no effect
- interference with IE86 binding [4]: did not interfere
